Reference: publication PMC12697872, “Rethinking the AI Paradigm for Solubility Prediction of Drug‑Like Compounds with Dual‐Perspective Modeling and Experimental Validation” (Advanced Science, 2025)
Values after ≈ are worked out from the molar mass of the structure shown. Values joined by “and” are separate entries in the source; they are usually repeats but may differ in a detail not shown here. Identical values can stand only once. Like-named read-outs stand apart in the source and are kept apart here.

Assays:
[1] = Saturation shake-flask aqueous solubility, gravimetric determination; settings: for Experimental Class: European Pharmacopoeia solubility class from the experimental solubility; for solubility thermodynamic at 48 h: water (saturated aqueous solution); for solubility thermodynamic at 48 h / solubility at 48 h: thermodynamic from solid; for solubility at 48 h: Experimental Log S
Method: Excess solid drug was added to a vial to prepare supersaturated aqueous solutions. The vial was placed in a constant temperature mixer (Titan Technology, SD2‐100) at 25 °C and shaken for 48 h at a speed of 500 rpm. […] After equilibration, the solution was centrifugated at room temperature at 8000 rpm, and the supernatant was collected. The concentration of the supernatant was determined using the gravimetric method. A measured volume of the supernatant (e.g. 1 mL) was transferred to a pre‐weighted empty vial, dried in a vacuum oven at 70 °C, and re‐weighed. The difference between the initial and final weights represents the drug content in the saturated solution. Each compound was tested in triplicate to ensure accuracy.

[2] = cited from earlier work; for LogS(mol/L): SC2-2 dataset (Second Solubility Challenge, loose subset), aqueous solubility; for Class: SC2-2 dataset, aqueous solubility class 0-6
[3] = cited from earlier work; for Class: SC2-1 dataset, aqueous solubility class 0-6; for LogS(mol/L): SC2-1 dataset (Second Solubility Challenge, tight subset), aqueous solubility
[4] = water, 25 °C, averaged over triplicate
[5] = water, 25 °C, shaken 48 h, triplicate, Log S = base-10 logarithm of moles per liter
[6] = water, 25 °C, single replicate of triplicate

OC[C@H]1O[C@@H](n2cnc3c(O)ncnc32)C[C@@H]1O [Deoxyinosine]
Experimental Class [1]: 3 (Sparingly soluble (3))
Experimental Log S ([1]; single replicate of triplicate): -1.3814 and -1.3992
Experimental S ([1]; single replicate of triplicate): 10.1800 and 10.4800 and 10.0600
solubility thermodynamic at 48 h ([1]; 25 °C, water): 10200 µg/mL (≈ 40.6 mM)
solubility at 48 h [1, 4]: 40.6 mM (≈ 10200 µg/mL)
solubility at 48 h [1, 5]: 40.6 mM (≈ 10200 µg/mL)
solubility at 48 h [1, 6]: 40.4 mM (≈ 10200 µg/mL)

CC(C)N=c1cc2n(-c3ccc(Cl)cc3)c3ccccc3nc-2cc1Nc1ccc(Cl)cc1
LogS(mol/L) [2]: -9.05 mol/L
Class [2]: 6 (Practically insoluble or insoluble (6))

OC[C@@H](O)CN1CCN(c2ccccc2)CC1 [Levodropropizine, reference compound]
Experimental Class [1]: 2 (Soluble (2))
Experimental Log S ([1]; single replicate of triplicate): -0.8427
Experimental S ([1]; single replicate of triplicate): 34.3300 and 33.9500
solubility thermodynamic at 48 h ([1]; 25 °C, water): 34200 µg/mL (≈ 145 mM)
solubility at 48 h [1, 4]: 145 mM (≈ 34200 µg/mL)
solubility at 48 h [1, 5]: 145 mM (≈ 34200 µg/mL)
solubility at 48 h [1, 6]: 145 mM (≈ 34300 µg/mL)

CCc1ccc(CCOc2ccc(CC3SC(=O)NC3=O)cc2)nc1 (stereo not shown) [CCc1ccc(CCOc2ccc(CC3SC(=O)NC3=O)cc2)nc1]
LogS(mol/L) [2]: -6.2 mol/L
Class [2]: 6 (Practically insoluble or insoluble (6))

O=C(c1ccc(OCCN2CCCCC2)cc1)c1c(-c2ccc(O)cc2)sc2cc(O)ccc12
Class [2]: 6 (Practically insoluble or insoluble (6))

O=c1[nH]cnc2c1ncn2[C@H]1CC[C@@H](CO)O1 [O=c1[nH]cnc2c1ncn2[C@H]1CC[C@@H](CO)O1]
Class [2]: 3 (Sparingly soluble (3))

Nc1nc2c(c(=O)[nH]1)CC=N2 [7-Deazaguanine]
Experimental Log S ([1]; single replicate of triplicate): -1.8036 and -1.6879
Experimental S ([1]; single replicate of triplicate): 2.1200 and 2.3600 and 3.0800
solubility thermodynamic at 48 h ([1]; 25 °C, water): 2520 µg/mL (≈ 16.8 mM)
solubility at 48 h [1, 4]: 16.6 mM (≈ 2490 µg/mL)
solubility at 48 h [1, 6]: 14.1 mM (≈ 2120 µg/mL)

O=C1[C@H](CC[C@H](O)c2ccc(F)cc2)[C@@H](c2ccc(O)cc2)N1c1ccc(F)cc1
LogS(mol/L) [2]: -4.94 mol/L
Class [2]: 6 (Practically insoluble or insoluble (6))

COc1cc(NS(=O)(=O)c2ccc(N)cc2)nc(OC)n1 [COc1cc(NS(=O)(=O)c2ccc(N)cc2)nc(OC)n1]
LogS(mol/L) [2]: -3.74 mol/L
Class [2]: 6 (Practically insoluble or insoluble (6))

CC(C)NCC(O)COc1ccc(COCCOC(C)C)cc1 (stereo not shown) [CC(C)NCC(O)COc1ccc(COCCOC(C)C)cc1]
LogS(mol/L) [2]: -2.09 mol/L
Class [2]: 4 (Slightly soluble (4))

O=C1Nc2ccc(Cl)cc2C(c2ccccc2)=NC1O (stereo not shown) [O=C1Nc2ccc(Cl)cc2C(c2ccccc2)=NC1O]
Class [3]: 6 (Practically insoluble or insoluble (6))

C[C@]12C[C@H](O)[C@H]3[C@@H](CCC4=CC(=O)CC[C@@]43C)[C@@H]1CC[C@@H]2C(=O)CO
LogS(mol/L) [3]: -3.29 mol/L
Class [3]: 5 (Very slightly soluble (5))

CC(=O)SCC(Cc1ccccc1)C(=O)NCC(=O)OCc1ccccc1 (stereo not shown) [Racecadotril, reference compound]
Experimental Class [1]: 6 (Practically insoluble or insoluble (6))
Experimental Log S ([1]; single replicate of triplicate): -4.1710 and -3.8226 and -3.9232
Experimental S ([1]; single replicate of triplicate): 0.0260 and 0.0580 and 0.0460
solubility thermodynamic at 48 h ([1]; 25 °C, water): 43.3 µg/mL (≈ 0.112 mM)
solubility at 48 h [1, 4]: 0.107 mM (≈ 41.1 µg/mL)
solubility at 48 h [1, 5]: 0.107 mM (≈ 41.1 µg/mL)

CCC1(c2ccccc2)C(=O)NCNC1=O [CCC1(c2ccccc2)C(=O)NCNC1=O]
LogS(mol/L) [3]: -2.53 mol/L
Class [3]: 5 (Very slightly soluble (5))

Cc1cc(=O)oc2cc(O[C@@H]3O[C@H](CO)[C@@H](O)[C@H](O)[C@H]3O)ccc12 [4-methylumbelliferyl β-D-glucoside]
Experimental Log S ([1]; averaged over triplicate): -1.8858
Experimental S ([1]; averaged over triplicate): 4.4033
Experimental Log S ([1]; single replicate of triplicate): -1.8647 and -1.9030 and -1.8898
Experimental S ([1]; single replicate of triplicate): 4.6200 and 4.2300 and 4.3600

COc1ccc2c(c1OC)C(=O)O[C@@H]2[C@H]1c2c(cc3c(c2OC)OCO3)CCN1C
LogS(mol/L) [3]: -4.48 mol/L
Class [3]: 6 (Practically insoluble or insoluble (6))

N[C@@H](Cc1ccc(I)cc1)C(=O)O [4-Iodo-L-phenylalanine]
Experimental Log S ([1]; averaged over triplicate): -2.7425
Experimental S ([1]; averaged over triplicate): 0.5633
Experimental Log S ([1]; single replicate of triplicate): -2.6716 and -2.9727 and -2.5832
Experimental S ([1]; single replicate of triplicate): 0.6200 and 0.3100 and 0.7600

COC(=O)Nc1nc2ccccc2[nH]1 [COC(=O)Nc1nc2ccccc2[nH]1]
LogS(mol/L) [3]: -4.56 mol/L
Class [3]: 6 (Practically insoluble or insoluble (6))

Nc1nc2c(c(=O)[nH]1)CC=N2 [7‐Deazaguanine]
Experimental Class [1]: 4 (Slightly soluble (4))
solubility at 48 h [1, 5]: 16.6 mM (≈ 2490 µg/mL)

c1ccc2c(c1)[nH]c1ccccc12 [c1ccc2c(c1)[nH]c1ccccc12]
LogS(mol/L) [3]: -5.19 mol/L
Class [3]: 6 (Practically insoluble or insoluble (6))

Cc1cc(=O)oc2cc(O[C@@H]3O[C@H](CO)[C@@H](O)[C@H](O)[C@H]3O)ccc12 [4‐methylumbelliferyl β‐D‐glucoside]
Experimental Class [1]: 4 (Slightly soluble (4))
Experimental Log S [1, 5]: −1.886 ± 0.016

CCn1cc(C(=O)O)c(=O)c2cc(F)c(N3CCNCC3)cc21
LogS(mol/L) [3]: -2.88 mol/L
Class [3]: 5 (Very slightly soluble (5))

O=C1CCc2cc(OCCCCc3nnnn3C3CCCCC3)ccc2N1 [O=C1CCc2cc(OCCCCc3nnnn3C3CCCCC3)ccc2N1]
LogS(mol/L) [3]: -4.93 mol/L
Class [3]: 6 (Practically insoluble or insoluble (6))

CCC(C)C1(CC)C(=O)NC(=O)NC1=O (stereo not shown) [CCC(C)C1(CC)C(=O)NC(=O)NC1=O]
LogS(mol/L) [3]: -2.22 mol/L
Class [3]: 4 (Slightly soluble (4))

COc1cc(N)c(Cl)cc1C(=O)NC1CCN(CCCOc2ccc(F)cc2)CC1OC (stereo not shown)
LogS(mol/L) [3]: -6.78 mol/L
Class [3]: 6 (Practically insoluble or insoluble (6))

Nc1ccc(S(=O)(=O)Nc2nccs2)cc1 [Nc1ccc(S(=O)(=O)Nc2nccs2)cc1]
LogS(mol/L) [3]: -2.62 mol/L
Class [3]: 5 (Very slightly soluble (5))

N[C@@H](Cc1ccc(O)c(O)c1)C(=O)O [N[C@@H](Cc1ccc(O)c(O)c1)C(=O)O]
LogS(mol/L) [3]: -1.76 mol/L
Class [3]: 4 (Slightly soluble (4))

Cc1c(O)cccc1C(=O)N[C@@H](CSc1ccccc1)[C@H](O)CN1C[C@H]2CCCC[C@H]2C[C@H]1C(=O)NC(C)(C)C
LogS(mol/L) [3]: -6.21 mol/L
Class [3]: 6 (Practically insoluble or insoluble (6))

CC(C)NCC(O)COc1cccc2[nH]ccc12 (stereo not shown) [CC(C)NCC(O)COc1cccc2[nH]ccc12]
LogS(mol/L) [3]: -3.75 mol/L
Class [3]: 6 (Practically insoluble or insoluble (6))

CC(=C(CCO)SSC(CCO)=C(C)N(C=O)Cc1cnc(C)nc1N)N(C=O)Cc1cnc(C)nc1N [Thiamine disulfide]
Experimental Class [1]: 4 (Slightly soluble (4))
Experimental Log S ([1]; single replicate of triplicate): -2.3811 and -2.3222
Experimental S ([1]; single replicate of triplicate): 1.9700 and 2.3400 and 2.6800
solubility thermodynamic at 48 h ([1]; 25 °C, water): 2330 µg/mL (≈ 4.14 mM)
solubility at 48 h [1, 4]: 4.11 mM (≈ 2310 µg/mL)
solubility at 48 h [1, 5]: 4.11 mM (≈ 2310 µg/mL)
solubility at 48 h [1, 6]: 3.5 mM (≈ 1970 µg/mL)

CC1=C(C(=O)O)N2C(=O)[C@@H](NC(=O)[C@H](N)C3=CCC=CC3)[C@H]2SC1
LogS(mol/L) [3]: -1.18 mol/L
Class [3]: 3 (Sparingly soluble (3))

COc1ccc([C@@H]2Sc3ccccc3N(CCN(C)C)C(=O)[C@@H]2OC(C)=O)cc1
LogS(mol/L) [3]: -3.02 mol/L
Class [3]: 5 (Very slightly soluble (5))

COc1cc([C@@H]2c3cc4c(cc3[C@@H](O[C@@H]3O[C@@H]5CO[C@@H](C)O[C@H]5[C@H](O)[C@H]3O)C3COC(=O)[C@@H]32)OCO4)cc(OC)c1O (stereo partly shown)
LogS(mol/L) [3]: -3.6 mol/L
Class [3]: 5 (Very slightly soluble (5))

NCC(CC(=O)O)c1ccc(Cl)cc1 (stereo not shown) [NCC(CC(=O)O)c1ccc(Cl)cc1]
LogS(mol/L) [3]: -1.78 mol/L
Class [3]: 4 (Slightly soluble (4))

Nc1nc(=O)c2nc(CNc3ccc(C(=O)N[C@@H](CCC(=O)O)C(=O)O)cc3)cnc2[nH]1
LogS(mol/L) [3]: -5.96 mol/L
Class [3]: 6 (Practically insoluble or insoluble (6))

C[C@@H]1C[C@H]2[C@@H]3CCC4=CC(=O)C=C[C@]4(C)[C@@]3(F)[C@@H](O)C[C@]2(C)[C@@]1(O)C(=O)CO
LogS(mol/L) [3]: -3.56 mol/L
Class [3]: 5 (Very slightly soluble (5))

CN(C)CCCN1c2ccccc2Sc2ccccc21 [CN(C)CCCN1c2ccccc2Sc2ccccc21]
LogS(mol/L) [3]: -4.45 mol/L
Class [3]: 6 (Practically insoluble or insoluble (6))

CO/N=C(\C(=O)N[C@@H]1C(=O)N2C(C(=O)O)=C(CSc3nnnn3C)CS[C@H]12)c1csc(N)n1
LogS(mol/L) [3]: -3.27 mol/L
Class [3]: 5 (Very slightly soluble (5))

O=C1C(O)=C(C2CCC(c3ccc(Cl)cc3)CC2)C(=O)c2ccccc21 (stereo not shown)
LogS(mol/L) [3]: -6.07 mol/L
Class [3]: 6 (Practically insoluble or insoluble (6))

N[C@@H](Cc1ccc(I)cc1)C(=O)O [4‐Iodo‐L‐phenylalanine]
Experimental Class [1]: 5 (Very slightly soluble (5))
solubility at 48 h [1, 5]: 1.81 mM (≈ 526 µg/mL)

CC(C(=O)O)c1ccc(-c2ccccc2)c(F)c1 (stereo not shown) [CC(C(=O)O)c1ccc(-c2ccccc2)c(F)c1]
LogS(mol/L) [3]: -4.34 mol/L
Class [3]: 6 (Practically insoluble or insoluble (6))

CN1CCN(c2cc3c(cc2F)c(=O)c(C(=O)O)cn3-c2ccc(F)cc2)CC1
LogS(mol/L) [3]: -3.83 mol/L
Class [3]: 6 (Practically insoluble or insoluble (6))

Nc1ccc(N=Nc2ccccc2)c(N)n1 [Nc1ccc(N=Nc2ccccc2)c(N)n1]
LogS(mol/L) [3]: -4.02 mol/L
Class [3]: 6 (Practically insoluble or insoluble (6))

CCCNC(=O)NS(=O)(=O)c1ccc(Cl)cc1 [CCCNC(=O)NS(=O)(=O)c1ccc(Cl)cc1]
LogS(mol/L) [3]: -3.17 mol/L
Class [3]: 5 (Very slightly soluble (5))

c1ccc(Nc2ccccc2)cc1 [c1ccc(Nc2ccccc2)cc1]
Class [3]: 6 (Practically insoluble or insoluble (6))

Oc1ccc(/C=C/c2cc(O)cc(O)c2)cc1 [Oc1ccc(/C=C/c2cc(O)cc(O)c2)cc1]
Class [3]: 6 (Practically insoluble or insoluble (6))

CS(=O)(=O)c1ccc(C2=C(c3ccccc3)C(=O)OC2)cc1
LogS(mol/L) [3]: -4.61 mol/L
Class [3]: 6 (Practically insoluble or insoluble (6))
